# From article PMC7412073, “Pharmacokinetics and Metabolism of Liposome-Encapsulated 2,4,6-Trihydroxygeranylacetophenone in Rats Using High-Resolution Orbitrap Liquid Chromatography Mass Spectrometry” (Molecules, 2020)
# Where two headings read alike, the source gives them in different places.
# Key:
# [1] = Metabolite identification in rat blood, urine and feces (UHPLC-MS/MS); format: in vivo, Sprague-Dawley rats; set-up: key: B, U and F represent blood, urine and feces samples, respectively; B, U and F represent blood, urine and feces samples, respectively; B, U and F represent blood, urine and feces samples, respectively; settings: rats dosed orally with 20 mg/kg liposomes-encapsulated tHGA, samples over 24 h
# Protocol: Groups 4 to 6 were used for single-dose drug metabolism study. Each rat was kept in individual metabolic cages. Urine and faeces were collected from each rat in the tHGA-treated group 4 and control group 5 at four different times over a period of 24 h. The samples were stored at −80 °C until further analysis. For the determination of plasma metabolites, blood was sampled from each rat in the control group 6, according to the same procedure as in the pharmacokinetic study. Blood samples collected from the tHGA-treated group 2 in the pharmacokinetics study were also used for the metabolism study.
# For the drug metabolism study, for each rat, plasma samples collected over a period of 24 h were combined and tHGA was similarly extracted from the samples. For the urine samples, for each rat, samples collected over the 24 h period were combined and centrifuged for 15 min at 14,000 rpm. The supernatant was then vacuum-evaporated at 40 °C to a volume of 5 mL, after which, 30 mL methanol was added, the mixture sonicated for 25 min, followed by centrifuging at 10,000 rpm for 15 min. The supernatant was again vacuum-concentrated at 40 °C, to a volume of 5 mL, filtered through 0.45 μm membrane filter into an LC-MS vial and then injected (10 µL) to UHPLC-MS/MS system for spectral acquisition.
# […] collected over 24 h was homogenized with distilled water in the ratio of 1 g to 3 mL and sonicated for 10 min. From this mixture, 3 mL was taken and mixed with 9 mL methanol. After that, the mixture was sonicated for 30 min and then centrifuged at 14,000 rpm for 15 min. The supernatant was taken to dryness using a rotary evaporator at 40 °C. The residue was then reconstituted in 1 mL ACN (80%), filtered through 0.45 μm membrane filter, and injected to the UHPLC-MS/MS system for acquisition of spectra.
# For the identification of tHGA and its metabolites simultaneously, MS detection was operated under a heated electrospray ion source (H-ESI II) using positive/negative switching ionization mode to maximize metabolite coverage in every injection. The H-ESI parameters were optimized as follows: spray voltage (+) and (−) 4.2 and 3.5 kV respectively, capillary temperature 320 °C, S-lens RF level 55, sheath gas flow rate 45, auxiliary gas 10 and sweep gas 2 (manufacturer’s units). Nitrogen was used for the source, Orbitrap bath gas, and the higher energy collision dissociation (HCD) cell collision. The full-scan MS data were recorded across the mass range of 50–1500 m/z. The resolution was 70,000 (FWHM) at m/z 200, with automatic gain control (AGC) target of 1 × 10^6 ions and an auto maximum ion injection time (IT).
# All MS data acquired using the Q Exactive MS were controlled by Xcalibur 4.0 software (Thermo Fisher Scientific). The MS data from plasma-, urine-, and feces-treated, as well as the control samples were analyzed using Compound Discoverer software 2.1 (Thermo Fisher Scientific) for the identification of tHGA metabolites. The software extracted information about metabolite m/z values depending on a list of expected metabolites. As no standards or literature information were available to confirm tHGA metabolites structure, tentative elucidation of the metabolites was performed according to Schymanski classification. A list of putative metabolites with the probable metabolism pathway was created for peaks based on MS, MS/MS fragmentation and the isotopic pattern of tHGA. The matching percentage between measured and theoretical MS/MS spectra was determined depending on the existence/absence of theoretical fragments in the MS/MS spectra generated experimentally. In addition, the site of metabolism was determined based on the tHGA structure with the help of a web server site for metabolism predictor [27, 28].
# [2] = Single-dose pharmacokinetic study of free and liposome-encapsulated tHGA in rats (plasma, LC-HRMS); format: in vivo, Sprague-Dawley rats; settings: for Fr (relative oral bioavailability): PO 20 mg/kg relative to IP 20 mg/kg tHGA-loaded liposomes, rats
# Protocol: Thirty healthy male Sprague-Dawley (S.D.) rats, weighing between 180 and 225 g on the day of dosing, were kept in polypropylene cage base with stainless steel wire top clips for three days before the experiment. The living environment of the animals was controlled as follows: 12/12-h dark/light cycle, temperature maintained between 22 to 25 °C, daily feeding with commercial pellet food, and tap water. Rats were fasted 12 h before dosing and labeled with a designated number at the base of their tails. The rats were then randomly divided into six groups as follows: • Group 1 (n = 6) were dosed orally with 20 mg/kg of free tHGA. • Group 2 (n = 6) were dosed orally with 20 mg/kg of liposomes-encapsulated tHGA. • Group 3 (n = 6) were dosed intraperitoneally with 20 mg/kg of liposomes-encapsulated tHGA • Group 4 (n = 4) were dosed orally with 20 mg/kg of liposomes-encapsulated tHGA. • Group 5 (n = 4, control) were dosed orally with blank liposomes formulation (for urine and feces collection). • Group 6 (n = 4, control) were dosed orally with blank liposomes formulation (for blood collection).
# Groups 1 to 3 were used for the single-dose pharmacokinetic study. An aliquot of 200 µL of blood was drawn from each rat via the tail vein into polypropylene tubes containing a disodium K2EDTA solution (10%) as an anticoagulant at the pre-specified time points; at 0.25, 0.5, 1.5, 2, 4, 8 and 24 h for groups 1 and 2 after PO dose, and at 0.08, 0.5, 1.5, 2, 4, 8 and 24 h for group 3 after IP dose. Blood samples were centrifuged at 14,000 rpm at 20 °C for 10 min to separate the plasma which was then stored under −80 °C until further analysis. Animals were allowed to feed two hours after the first sample time point.
# For the pharmacokinetic study, the same procedure used in the preparation of the standard solutions was used to extract tHGA from plasma samples.
# LC-MS analysis was performed using a Thermo Scientific™ Q Exactive™ Focus Hybrid Quadrupole-Orbitrap™ Mass Spectrometer (Thermo Fisher Scientific, Bremen, Germany) attached to a Thermo Scientific Dionex Ultimate 3000 Series RS pump coupled with a Thermo Scientific Dionex Ultimate 3000 Series TCC-3000RS column compartments and a Thermo Fisher Scientific Ultimate 3000 Series WPS-3000RS autosampler (Thermo Fisher Scientific, Sunnyvale, CA, USA) controlled by Xcalibur Software 4.0 (Thermo Fisher Scientific, Waltham, MA, USA). The chromatographic separation was carried out using a Hypersil GOLD C18 column (100 × 2.1 mm, 1.9 μm) (Thermo Fisher Scientific, Waltham, MA, USA) and the mobile phase consisted of water with 0.1% formic acid (solvent A) and acetonitrile with 0.1% formic acid (solvent B). Gradient elution was run at 0.3 mL/min, with 10% solvent B at the start (t = 0 min), increasing to 70% solvent B at t = 5 min. The gradient was then maintained for 3 min at 70% solvent B until t = 8 min before again increasing solvent B to 100% until the end of the run at t = 9.5 min. The temperature of the autosampler was set to 4 °C. For the metabolism study, the same chromatographic conditions were used with a different elution system. A linear gradient elution from 0% to 100% of solvent B for 45 min was used.
# Mass spectrometric detection was operated under a heated electrospray ion source (H-ESI II) in negative ionization mode. The H-ESI parameters were optimized as follows: spray voltage 3.5 kV, capillary temperature 320 °C, S-lens RF level 55, sheath gas flow rate 45, auxiliary gas 10 and sweep gas 2 (manufacturer’s units). Nitrogen was used for the source, Orbitrap bath gas, and the higher energy collision dissociation (HCD) cell collision. A targeted SIM data-dependent MS/MS (tSIM/ddMS2) acquisition was used with an inclusion mass list containing m/z and retention time of tHGA. The resolution was 35,000 (FWHM) at m/z 200, with automatic gain control (AGC) target of 5 × 10^4 ions and an auto maximum ion injection time (IT). […]
# [3] = Short- and long-term stability of tHGA in rat plasma QC samples; format: in vitro ADME; settings: for Stability RE (%) Short-Term (4 °C): processed rat plasma sample, autosampler 4 °C, 24 h; for Stability RE (%) Short-Term (4 °C) / Stability RE (%) Long-Term (−80 °C): n = 6; for Stability RE (%) Long-Term (−80 °C): rat plasma, 1 month
# Protocol: Short- and long-term stability studies of tHGA in plasma was assessed using six replicates at two concentration levels, LQC and HQC. The QC samples were analyzed against the standard curve which was freshly prepared. The short-term stability was evaluated by analyzing the processed QC samples kept in the autosampler (4 °C) for 24 h. For long-term stability, tHGA plasma samples in low and high concentrations were stored at −80 °C for 1 month.
# [4] = PO, 20 mg/kg, male S.D rats, plasma, mean n = 6, listed as Free tHGA
smiles,measurement,setting,value
CC(=O)c1c(O)cc(O)c(C/C=C(\C)CCCC(C)(C)O)c1O [M5],Source (sample in which the metabolite was detected),[1],F
CC(=O)c1c(O)cc(O)c(C(O)/C=C(\C)CCC(O)=C(C)C)c1O (stereo not drawn) [M4],Source (sample in which the metabolite was detected),[1],F
"CC(=O)c1c(O)cc(O)c(C/C=C(\C)CCC=C(C)C)c1O [tHGA, 2,4,6-trihydroxy-3-geranylacetophenone]",Fr (relative oral bioavailability),[2]; listed as Free tHGA,9.07%
same,Fr (relative oral bioavailability),[2]; listed as unformulated tHGA,9.1%
same,Cmax,[2]; [4],5.35 ng/mL
same,t1/2 (elimination half-life),[2]; [4],6.95 h
same,Tmax,"[2]; Sprague-Dawley, rat, PO, 20 mg/kg, male S.D rats, plasma, mean n = 6",0.25 h
same,AUC(0-t),"[2]; male, Sprague-Dawley, rat, plasma, 20 mg/kg, oral administration, rats (unit as printed in abstract), read-out: AUC0–24",17.6 ng·h/mL
same,Cmax,"[2]; male, Sprague-Dawley, rat, plasma, po, 20 mg/kg, PO, male S.D rats, plasma, mean n = 6, read-out: Cmax",5.4 ng/mL
same,half-life,"[2]; male, Sprague-Dawley, rat, plasma, po, 20 mg/kg, PO, male S.D rats, plasma, mean n = 6, read-out: t1/2 (elimination half-life) (converted)",6.9 h
same,Stability RE (%) Short-Term (4 °C),[3]; 1.5 ng/mL tHGA (LQC),−4.66 ± 11.9%
same,Stability RE (%) Long-Term (−80 °C),[3]; 1.5 ng/mL tHGA (LQC),5.93 ± 2.8%
same,Stability RE (%) Short-Term (4 °C),[3]; 70 ng/mL tHGA (HQC),5.34 ± 6.9%
same,Stability RE (%) Long-Term (−80 °C),[3]; 70 ng/mL tHGA (HQC),5.34 ± 5.1%
same,"long-term stability, accuracy","[3]; LQC and HQC plasma samples, 1 month at −80 °C",5.3–5.9%
CC(=O)c1c(O)cc(O)c(C/C=C(C)/C=C/C=C(C)C)c1O [M7],Source (sample in which the metabolite was detected),[1],F
CC(=O)c1c(O)cc(O)c(C/C=C(\C)CCC(O)C(C)(C)O)c1O (stereo not drawn) [M10],Source (sample in which the metabolite was detected),[1],F
CC(=O)c1c(O)cc(O)c(C/C=C(\C)CCC(O)=C(C)C)c1O [M2],Source (sample in which the metabolite was detected),[1],"F, U"
CC(=O)c1c(O)cc(OS(=O)(=O)O)c(C(O)/C=C(\C)CCC(O)=C(C)C)c1O (stereo not drawn) [M9],Source (sample in which the metabolite was detected),[1],B
CC(=O)c1c(O)cc(O)c(C(O)/C=C(C)/C=C/C(O)=C(C)C)c1O (stereo not drawn) [M6],Source (sample in which the metabolite was detected),[1],"F, B"
CC(=O)c1c(O)cc(O)c(C(O)/C=C(\C)CCC=C(C)C)c1O (stereo not drawn) [M3],Source (sample in which the metabolite was detected),[1],"F, U"
